Like-named read-outs stand apart in the source and are kept apart here.
Assay: Serum concentration by HPLC in healthy human research participants (phase-1 study)
Type: in vivo
Details: for concentration at 24 h: both sexes, human, serum, oral, 60 mg/day
Method: Dog serum concentrations of Compound-1, Compound-1F and Compound-4 were determined with serum isolated from the blood of German shepherd dogs (age: 8-9 months) taken at different time points (2 h, 4 h, 6 h, 8, 10 h, 24 h) after oral drug intake. The steady-state serum concentrations of Compound-1, Compound-1F and Compound-4 were determined in mice with blood isolated at the end of the study by cardiac puncture. Serum proteins were removed by acetonitrile precipitation, and compounds were extracted by chloroform before separation on an HPLC-C18 column (Poroshell 120 EC-C18, Agilent) with an HPLC system (Agilent 1100 Series) and detection at OD 280 nm, for Compound-1 and Compound-1F. Detection of Compound-4 was performed at OD 310 nm. The same extraction method was also used to determine Compound-1F in the serum of healthy human research participants. Dog hematology and biochemical parameters were determined by the Center of Applied Analytical and Veterinary Studies, Cairo, Egypt. ECG and blood pressure were measured by Dr. Mohamed Elsaed, Electrocardiography Unit, Faculty of Veterinary Medicine, Cairo University. The study was approved by the ethical committee of the Center of Applied and Veterinary Studies, Cairo, Egypt. Clinical laboratory parameters of human research participants were determined by the Rabaa El Adaweya Medical Central Hospital, Cairo, Egypt.
Study design: The study was a three-part phase-1, randomized, placebo-controlled study of Compound-1F. The primary end-point was safety and tolerability. Secondary objectives were plasma pharmacokinetics data (part-1, part-2, part-3) and peripheral blood mononuclear cell MPP1 status (part-3).
The first part (part-1) was a single ascending dose-effect study with three cohorts of 4 healthy research participants each, who received a single dose of 20 mg, 40 mg or 60 mg in subsequent cohorts. Three drug-treated and one placebo-treated subjects were randomized in each cohort (2 males, 2 females; age: 35-65 years). After completion of safety assessment, blood was drawn for analysis of pharmacokinetics data.
In the second part (part-2) of the study, the daily dose was increased every two days until the final dose of 60 mg/day was reached, i.e. the daily dose was 20 mg on day-1 and day-2, 40 mg on day-3 and day-4, and 60 mg on day-5 until day-14. Blood was drawn before study begin for analysis of laboratory parameters and on day-14 for analysis of laboratory parameters and determination of pharmacokinetics data, at the indicated time points after administration of the last dose of 60 mg. All study participants (n=10; 7 males, 3 females; Caucasians; age: 37-66 years; 8 participants received drug, and two received placebo) were healthy and had the possibility to withdraw from the study at any time. All study participants wanted to complete the study.
In the third part (part-3) of the study, a cohort of 8 healthy elderly voluntary research participants (7 males, 1 female; age 60-73 years; all Caucasians) received a daily oral dose of 60 mg of Compound-1F for 28 days (6 participants received drug, 2 placebo). In part-3 of the study, blood was drawn before study begin for analysis of clinical laboratory parameters and MPP1 status, and on day-28 for analysis of laboratory parameters and MPP1 status, and 24 h after the last drug intake for measurement of serum concentration of Compound-1F. […]

For `O=C(C1=C(O)C(c2ccc(F)cc2)N(c2ccc3c(c2)OCO3)C1=O)C1CC1` (centres unmarked) [Compound-1F, 1-(1,3-Benzodioxol-5-yl)-4-(cyclopropanecarbonyl)-2-(4-fluorophenyl)-3-hydroxy-2H-pyrrol-5-one], the concentration at 24 h (elderly research participants, 28 days once daily 60 mg, read-out: steady-state serum concentration at 24 h after the last drug intake) was 1540 ± 310 ng/mL, the concentration at 24 h (healthy humans, repeated dosing 60 mg/day, read-out: serum concentration at 24 h after intake of the last dose) was 1470 ± 330 ng/mL and the “dose dependence of serum concentration” value (healthy humans, oral Compound-1F 20, 40, 60 mg) was “dose-dependent increase”. For the same compound, the “peak serum concentration at t=6 h” value (healthy humans, repeated dosing 60 mg/day, n=8) was 5.33 ± 0.76 µg/mL and the “time of peak serum concentration after drug intake” value (healthy humans, repeated dosing with 60 mg/day) was 6 h.

Reference: patent publication US20210015793A1, “COMPOUNDS FOR TREATING CNS- AND NEURODEGENERATIVE DISEASES” (ETH ZURICH, priority 2018, published 2021)
